Results on nine molecules are retold here after US20260234157A1, “COMPOUND AND METHOD FOR TARGETED DEGRADATION OF ANDROGEN RECEPTOR” (Gan & Lee Pharmaceuticals Co., Ltd., priority 2023, published 2026).

One assay deals with LNCaP FGC cells. As to the kind of experiment: Inhibition of proliferation of LNCaP cells (WST-8). In kind it is cell-based. Particulars: Homo sapiens, LNCaP, 96 h, LNCaP FGC cells, 96 hours, WST-8 absorbance at 450 nm; read-out: IC50 for inhibiting the proliferation of LNCaP cells. The method, then: The cells were cultured in a cell culture incubator with 5% CO2 at 37° C. overnight. […] On the sixth day, 96 well plates were taken out, and 20 μL of WST-8 (Beytime, C0040) reagent was added to each well.
As for `CC1(C)C(=O)N(c2ccc(C#N)c(C(F)(F)F)c2)C(=S)N1c1ccc(C(=O)N2CC(CN3CCC4(CC3)COc3cc5c(cc3C4)C(=O)N(C3CCC(=O)NC3=O)C5=O)C2)c(F)c1` (stereo not drawn) [Compound 128], the IC50 amounted to 4.16 µM.

The assay is the same for the next values; noted with them: Homo sapiens, LNCaP, 96 h, read-out: IC50 for inhibiting the proliferation of LNCaP cells, LNCaP FGC cells, 96 hours, WST-8 absorbance at 450 nm.
As for `CC1(CN2CCC3(CCc4cc5c(cc4O3)C(=O)N(C3CCC(=O)NC3=O)C5=O)CC2)CCN(C(=O)c2ccc(N3C(=S)N(c4ccc(C#N)c(C(F)(F)F)c4)C(=O)C3(C)C)cc2F)CC1` (stereo not drawn) [Compound 108], the IC50 is 10.4 µM.
As to `CC1(C)C(=O)N(c2ccc(C#N)c(C(F)(F)F)c2)C(=S)N1c1ccc(C(=O)N2CCC(CN3CCC4(CC3)COc3cc5c(cc3O4)CN(C3CCC(=O)NC3=O)C5=O)CC2)c(F)c1` (stereo not drawn) [Compound 111], the IC50 was determined as 5.72 µM.
As to `CC1(C)C(=O)N(c2ccc(C#N)c(C(F)(F)F)c2)C(=S)N1c1ccc(C(=O)N2CC3(CC(N4CCC5(CC4)COc4cc6c(cc4C5)C(=O)N(C4CCC(=O)NC4=O)C6=O)C3)C2)c(F)c1` (stereo not drawn) [Compound 115], the IC50 worked out at 10.8 µM.
As for `CC1(C)C(=O)N(c2ccc(C#N)c(C(F)(F)F)c2)C(=S)N1c1ccc(C(=O)N2CC3(CCC(N4CCC5(CCc6cc7c(cc6O5)C(=O)N(C5CCC(=O)NC5=O)C7=O)CC4)CC3)C2)c(F)c1` (stereo not drawn) [Compound 117], the IC50 was found to be 2.57 µM.
On the same count and under the same terms, the same measure for `CC1(C)C(=O)N(c2ccc(C#N)c(C(F)(F)F)c2)C(=S)N1c1ccc(C(=O)N2CCC(CN3CC4(CCc5cc6c(cc5O4)C(=O)N(C4CCC(=O)NC4=O)C6=O)C3)CC2)c(F)c1` (stereo not drawn) [Compound 119]: 4.11 µM.
Same read-out and setting: then `CC1(C)C(=O)N(c2ccc(C#N)c(C(F)(F)F)c2)C(=S)N1c1ccc(C(=O)N2CCC3(CC2)CC(N2CCC4(CC2)COc2cc5c(cc24)C(=O)N(C2CCC(=O)NC2=O)C5=O)C3)c(F)c1` (stereo not drawn) [Compound 122], with 13.7 µM.

The same assay, now with this note: LNCaP FGC cells, 96 hours, WST-8 absorbance at 450 nm; read-out: IC50 for inhibiting the proliferation of LNCaP cells.
Regarding `CC1(CN2CC3(CCc4cc5c(cc4O3)CN(C3CCC(=O)NC3=O)C5=O)C2)CCN(c2ccc(C(=O)N[C@H]3CC[C@H](Oc4ccc(C#N)c(Cl)c4)CC3)nn2)CC1` (stereo partly drawn) [Compound 12], the IC50 was 0.73 µM.

Staying with this assay, now noted: read-out: IC50 for inhibiting the proliferation of LNCaP cells; LNCaP FGC cells, 96 hours, WST-8 absorbance at 450 nm.
Regarding `CC1(C)C(=O)N(c2ccc(C#N)c(C(F)(F)F)c2)C(=S)N1c1ccc(C(=O)N2CC[C@@H](CN3CCC4(CC3)COc3cc5c(cc3C4)C(=O)N(C3CCC(=O)NC3=O)C5=O)C2)c(F)c1` (stereo partly drawn) [Compound 126], the IC50 came out at 4.06 µM.
